Data as given in PMC12040169 (PLOS Biology, 2025).

Experiment: in vitro
Conditions: human, hela cells, % viability

| Structure (SMILES) | viability at 28.5 h, 10 µM [%] |
| --- | --- |
| Cc1ccc(-c2nc(C)c(C(=O)Nc3ccc(-n4cncn4)nc3)s2)o1 [CBK297770] | 95.3 |
| Cc1nc(-c2ccco2)nc2sc(C(=O)NCc3nnc4ccccn34)c(C)c12 [CBK297773] | 107 |
| Cc1nc(COC(=O)c2ccc(C#N)c(C)n2)cs1 [CBK297775] | 88.9 |
| Cc1ccn2c(=O)cc(COC(=O)c3sc4nc(C)cc(C)c4c3N)nc2c1 [CBK297783] | 93.3 |
| CC(C)CN(CC(C)C)C(=O)Cn1cc([N+](=O)[O-])cc(C(N)=O)c1=O [CBK297784] | 83.9 |
| COc1ccc(C2=NN(C(=O)CCCC(=O)O)C(c3ccc4nccnc4c3)C2)cc1OC (stereo not drawn) [CBK297785] | 84.2 |
| CCc1nn2c(=O)cc(CNc3ccc4c(c3)OCCO4)nc2s1 [CBK297787] | 99.2 |
| COC(=O)c1cc(C#N)c(=O)n(CC(=O)N(C)Cc2ccsc2)c1 [CBK297788] | 115 |
| O=C(CNC(=O)c1ccc(OC(F)F)cc1)NCCCn1cccn1 [CBK297789] | 106 |
| CC(NC(=O)CS(=O)(=O)Cc1ccc(C#N)cc1)c1ccc(C#N)cc1 (stereo not drawn) [CBK297791] | 91.1 |
| Cc1ccc(CN2CCCN(C(=O)CCn3cnc4c(cnn4C)c3=O)CC2)cc1 [CBK297793] | 79.8 |
| Cn1nnnc1-c1cccc(NC(=O)c2ccc(Oc3ccccc3)cc2)c1 [CBK297872] | 81.6 |
| CCOC(=O)c1sc2cccc(F)c2c1COC(=O)c1ccc(CNC(N)=O)cc1 [CBK297873] | 101 |
| Cc1cc(C(=O)CSc2nnc(-c3ccccc3F)n2CC(C)C)c(C)[nH]1 [CBK297877] | 85.1 |
| CCOC(=O)C1=C(C)N(c2ccc(C(=O)O)cc2)C(=O)NC1c1ccc(OC(F)F)c(OC)c1 (stereo not drawn) [CBK297878] | 90.1 |
| CCC(CC)(CC(=O)Nc1ccc(N2CCCC2=O)c(C)c1)C(=O)O [CBK297881] | 101 |
| CCC(CC)(CC(=O)Nc1ccc2nc(C)sc2c1)C(=O)O [CBK297882] | 112 |
| Cc1cc(N2CCCC2)ccc1NC(=O)CCn1c(-c2cccs2)n[nH]c1=S [CBK297883] | 86.6 |
| CCOC(=O)NC(=O)CSc1nnc(C2COc3ccccc3O2)n1-c1ccccc1 (stereo not drawn) [CBK297884] | 88.9 |
| Cc1ccc(C(=O)CCC(=O)N2CCCC2c2ccc(F)cc2)cc1 (stereo not drawn) [CBK297885] | 96.2 |
| C=CCn1c(-c2sc(NC(=O)Cn3c(=O)n(CCC)c4ccccc43)nc2C)n[nH]c1=S [CBK297890] | 97.7 |

| Structure (SMILES) | viability at 28.5 h, 10 µM [%] |
| --- | --- |
| Cn1cccc1C(=O)NCCNC(=O)c1cc2ccccc2[nH]1 [CBK297894] | 87.7 |
| O=C(c1cc(O)nc2ccccc12)N1CCN(S(=O)(=O)N2CCCC2)CC1 [CBK297898] | 88.6 |
| CC(OC(=O)c1ccc2nccnc2c1)c1cccc([N+](=O)[O-])c1 (stereo not drawn) [CBK297901] | 78.5 |
| OC(COc1ccccc1F)CSc1nc(NC2CC2)c2ccccc2n1 (stereo not drawn) [CBK297902] | 86.7 |
| Cc1[nH]c2ccccc2c1C(=O)CSc1nccn1Cc1ccccc1 [CBK297905] | 76.6 |
| COc1ccc(C(=O)Nc2c(C)nn(-c3ccccc3)c2C)cc1S(=O)(=O)NC1CC1 [CBK297906] | 85.7 |
| Cc1ccc(-c2n[nH]c(=S)n2CC(=O)N(C)Cc2ccc(N3CCOCC3)cc2)cc1 [CBK297908] | 85.9 |
| C=CCn1c(-c2sc(NC(=O)CN3C(=C)c4ccccc4C3=O)nc2C)n[nH]c1=S [CBK297909] | 84.4 |
| CC(C)C(=O)N1CCN(C(=O)Cn2c(-c3ccc(Cl)cc3)n[nH]c2=S)CC1 [CBK297910] | 100 |
| Cc1ccc(S(=O)(=O)N2CCCN(CC(O)c3ccccc3)CC2)cc1 (stereo not drawn) [CBK297911] | 104 |
| Cc1[nH]c2ccccc2c1C(=O)CSc1nncc2ccccc12 [CBK297912] | 92.1 |
| COc1ccc(O)c(C(=O)c2cnn(-c3ccc(Cl)c(C(=O)O)c3)c2)c1 [CBK297914] | 90.2 |
| CN(C)c1cc(CNC(=O)c2cc3ccccc3oc2=O)ccn1 [CBK297917] | 88.8 |
| CN(C)C(=O)CN1CCN(C(=O)c2ccccc2C(=O)c2ccc(F)cc2)CC1 [CBK297921] | 89.5 |
| Cc1ccc(-c2n[nH]c(=S)n2CCC(=O)NCc2ccc(-c3csc(C)n3)s2)cc1 [CBK297924] | 84.5 |
| CSc1nc(C)c(CCC(=O)N(C)Cc2c(C)nn(-c3ccccc3)c2C)c(=O)[nH]1 [CBK297925] | 84.5 |
| COC(=O)c1cc(C#N)c(=O)n(CC(=O)Nc2ccc(OC)c(OC)c2)c1 [CBK297926] | 102 |
| Cc1nn(Cc2ccccc2)c(C)c1CNC(=O)c1nc(Cl)ccc1Cl [CBK297928] | 93.8 |
| CC(=O)c1ccccc1NC(=O)c1cc2ccc(F)cc2nc1C [CBK297929] | 89.2 |
| CC(C)CN1CCOC(CNC(=O)c2cc(O)nc3ccccc23)C1 (stereo not drawn) [CBK297931] | 80.6 |
| Cc1nc2ccccc2nc1COC(=O)c1ccc(S(=O)(=O)N2CCCCC2C)cc1 (stereo not drawn) [CBK297932] | 90.7 |

| Structure (SMILES) | viability at 28.5 h, 10 µM [%] |
| --- | --- |
| O=C(NCC1(N2CCOCC2)CCCCC1)c1ccccc1C(=O)c1ccc(F)cc1 [CBK297938] | 81 |
| Cc1cccc(-c2n[nH]c(=S)n2CC(=O)NCc2cn(-c3ccccc3)nc2-c2ccccc2)c1 [CBK297941] | 88.1 |
| Cc1cccc(-c2n[nH]c(=S)n2CC(=O)NCCCS(=O)(=O)Cc2ccccc2)c1 [CBK297942] | 103 |
| COc1ccc(NS(=O)(=O)c2cc(C(=O)O)sc2Br)cn1 [CBK297943] | 81.8 |
| COc1ccc(NC(=O)C2CC3CCC2C3)cc1S(=O)(=O)Nc1ccc(Cl)cc1 (stereo not drawn) [CBK297945] | 79.4 |
| Cc1cc(S(=O)(=O)Nc2ccc(C(C)(C)C)cc2)sc1C(=O)O [CBK297946] | 88.1 |
| O=C(NCc1cccnc1-n1cccn1)c1c[nH]c(C(=O)N2CCCC2)c1 [CBK298263] | 99.1 |
| COc1ccc(C)cc1C(O)CN1CCOC(c2ccc(F)cc2)C1 (stereo not drawn) [CBK298264] | 95.5 |
| CC(NC(=O)Nc1ccc(C(=O)NC(C)(C)C)cc1)c1cccc(Cl)c1 (stereo not drawn) [CBK298265] | 87.8 |
| CSc1nc(C)c(CCC(=O)Nc2ccc(N3CC(C)OC(C)C3)nc2)c(C)n1 (stereo not drawn) [CBK298266] | 87.4 |
| COc1ccc2cc(COC(=O)c3ccc([S+](C)[O-])cc3)c(Cl)nc2c1 (stereo not drawn) [CBK298267] | 99.5 |
| O=C(C1CC1)N1CCC(C(=O)N(Cc2ccco2)c2ccccc2)CC1 [CBK298269] | 85.8 |
| Cc1ccc(C2=CCN(C(=O)c3cccc(S(=O)(=O)N(C)C)c3)CC2)cc1 [CBK298273] | 90.9 |
| Cc1ncc(CN(C)C(C)C(=O)Nc2ccccc2N2CCCC2=O)s1 (stereo not drawn) [CBK298274] | 92 |
| Cc1ccc(Cc2cnc(NC(=O)c3ccoc3C)s2)cc1C [CBK298277] | 80.1 |
| COc1ccc(OC)c(CN(C(=O)c2oc3ccc(F)cc3c2C)c2cnn(C)c2)c1 [CBK298278] | 89.1 |
| COc1ccc(-c2noc(COc3cccc(C(=O)O)c3)n2)c(OC)c1 [CBK298279] | 101 |
| Cc1ccc(Cn2ncc3c(C(=O)N4CCC(N(C)S(C)(=O)=O)CC4)cc(C)nc32)cc1 [CBK298280] | 102 |
| Cc1cc(Cc2cnc(NC(=O)C3CCS(=O)(=O)C3)s2)ccc1Br (stereo not drawn) [CBK298281] | 90 |
| COc1ccc(SC(C)C(=O)N2CCN(c3ccc([N+](=O)[O-])nc3)CC2)cc1 (stereo not drawn) [CBK298282] | 93.5 |
| CN(Cc1cccnc1)C(=O)CSC(c1ccccc1)c1ccccc1 [CBK298284] | 90.7 |

| Structure (SMILES) | viability at 28.5 h, 10 µM [%] |
| --- | --- |
| Cc1cn2nc(N3CCN(S(=O)(=O)c4ccccc4[N+](=O)[O-])CC3)sc2n1 [CBK298288] | 111 |
| CCOc1cc(-c2nc3sc(CC)cc3c(=O)[nH]2)ccc1OCC(=O)O [CBK298291] | 88.4 |
| O=C(Nc1ncc(-c2ccccc2)s1)c1csc([N+](=O)[O-])c1 [CBK298293] | 87.4 |
| COC(=O)c1cccc(C(=O)Nc2ncc(-c3ccccc3)s2)c1 [CBK298294] | 89.7 |
| CN(C)C(CNS(=O)(=O)c1cc2c(cc1Br)NC(=O)CO2)c1ccc(F)cc1 (stereo not drawn) [CBK298296] | 105 |
| COc1cc(CNC(=O)c2ccc(O)nc2)ccc1OCc1ccncc1 [CBK298297] | 96.9 |
| Cc1nnc(C(C)Sc2nnc(-c3ccc(F)cc3)n2CC2CCCO2)o1 (stereo not drawn) [CBK298298] | 94.4 |
| Cc1cc(C(=O)NCc2ccnc(N3CCOCC3)c2)c(C)n1-c1cccc(Cl)c1 [CBK298301] | 81.9 |
| CCN(CC)CCn1c(NC(=O)c2c(Cl)nc3ccccn23)nc2ccccc21 [CBK298305] | 107 |
| CN(Cc1cc(Br)cs1)C(=O)CCN1C(=O)COc2ccccc21 [CBK298308] | 90 |
| CCc1c(C(=O)NCc2cccnc2-n2cncn2)cnn1-c1ccc(OC)nn1 [CBK298309] | 90.5 |
| Cc1cccn2cc(COC(=O)c3ccc(F)cc3N)nc12 [CBK298310] | 54.1 |
| CCOc1ccc(C(=O)N2CCN(S(=O)(=O)c3ccc(C)cc3C)CC2)cn1 [CBK298313] | 93.3 |
| COc1ccc(CC(=O)O)cc1S(=O)(=O)Nc1ccc(SC)cc1 [CBK298315] | 81 |
| Cc1nc([N+](=O)[O-])cn1CCC(=O)Nc1ccccc1Oc1ccccc1Cl [CBK298319] | 101 |
| O=C(NCC(O)COc1ccccc1)c1cnn2c(-c3ccccc3)ccnc12 (stereo not drawn) [CBK298320] | 99 |
| Cc1ccc(CC(C#N)Sc2nc(CN3CCOCC3)nc3ccccc23)cc1 (stereo not drawn) [CBK298321] | 82 |
| Cc1ccc(-c2nc(C)c(C(=O)NCc3ccnc(-n4ccnc4)c3)s2)o1 [CBK298322] | 105 |
| O=C(Nc1ccc(Oc2ncccn2)cc1)c1csc(-c2ccccc2)n1 [CBK298324] | 85.5 |
| O=C(O)c1ccn(-c2ccc(NS(=O)(=O)c3ccc(N4CCCC4=O)cc3)cc2)n1 [CBK298327] | 102 |
| CC(SCc1ccccc1)C(=O)NCC1CCN(c2ccccc2)C1 (stereo not drawn) [CBK298329] | 89.5 |
